Laboratory results reported in PubChem BioAssay AID179 (DTP/NCI, 2004).
Activity calls are given as the source filed them.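 Rule for the calls: active = compounds giving half or more protection of infected cells from virus-caused growth loss, again on retest; inactive = the rest.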 Where a SMILES comes first, the peptide text is derived from it.

Tested on: CEM cells HIV-1 protection, formazan growth assay
Test: NCI AIDS Antiviral Assay
Settings: for IC50: measured here: growth of uninfected CEM cells
Procedure, shortened: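 Soluble formazan readout of cell growth; CEM cells ± HIV-1; 5 drug concs. ≥50% protection → retest; ≥50% again = moderately active; reproducible 100% = confirmed active.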

| Structure (SMILES) | EC50 [µM] | IC50 [µM] | outcome |
| --- | --- | --- | --- |
| COc1cc(/C=C/C(=O)C(C)(C)C)cc(OC)c1OC | > 178 | 11.5 | – |
| OCCN1CSC(=S)NCCNC(=S)SC1 | > 63.1 | > 63.1 | – |
| CC12C3C4C1C1C2C3C41CO (stereo unspecified) | > 200 | > 200 | – |
| CCOC(=O)C12CCSC1C1(C#N)C(C#N)=CC2(N=P(c2ccccc2)(c2ccccc2)c2ccccc2)n2c(=O)n(-c3ccccc3)c(=O)n21 (stereo unspecified) | > 26.3 | > 26.3 | – |
| Cn1c2c(c3ccccc31)CCN(CCN1CCN(c3ccccc3)CC1)C2=O | – | – | inactive |
| C=C1c2nc3ccccc3n2C=C(c2ccc(Cl)cc2)N1c1ccc(OC)cc1 | > 200 | 18.6 | – |
| O=C(Nc1ccc([N+](=O)[O-])cc1[N+](=O)[O-])C(=O)C(C(=O)c1ccc2ccccc2c1)C1OC(=O)c2ccccc21 (stereo unspecified) | > 66.1 | 19.5 | – |
| CCc1cccc(C(C)C)c1NC(=O)C(=O)C1C(=O)NC(=O)NC1=O | – | – | inactive |
| C(=C\c1ccnc2ccccc12)/c1ccc2c(c1)OCO2 | – | 66.1 | inactive |
| C=CCN(CC=C)c1nc(Cl)nc(Cl)n1 | > 200 | > 200 | – |
| COC(=O)CN(CC(=O)NCCNC(=O)OC(C)(C)C)C1CCCCC1N(CC(=O)OC)CC(=O)OC (stereo unspecified) | > 200 | > 200 | – |
| CC(NC(=O)C(C)NC(=O)C(CC(N)=O)NC(=O)CN)C(=O)NC(CO)C(=O)NC(C)C(=O)NC(CCCN=C(N)N)C(=O)NC(CCCN=C(N)N)C(N)=O (stereo unspecified) (H-GNAASARR-NH2; configuration not given here) | – | – | inactive |
| COC(=O)c1ccc2cc1Nc1c(C#N)cnc(=S)n1-2 | > 603 | 363 | – |
| COc1cccc(C(NC2=NCCC=N2)c2cc3c(cc2O)OCO3)c1O (stereo unspecified) | > 200 | 35.5 | – |
| Cc1ccc(/C=N/n2c(Cc3ccccc3)n[nH]c2=O)cc1 | > 200 | > 200 | – |
| ClCCNCCNCCCl.O=c1cccccc1[O-].O=c1cccccc1[O-].[Co+3].[O-][Cl+3]([O-])([O-])[O-] | > 200 | 5.01 | – |
| CC(=O)C1C(=O)C(=O)N(c2cccc(C)c2C)C1=O (stereo unspecified) | > 200 | > 200 | – |
| CC(=O)c1cc(C(C)=O)c(CC(=O)C(=O)Nc2cccc(C)c2C)nc1CC(=O)C(=O)Nc1cccc(C)c1C | > 200 | > 200 | – |
| CC(=O)OC1CCn2nnc(CO[Si](C)(C)C(C)(C)C)c21 (stereo unspecified) | – | – | inactive |
| CN1Cc2ccccc2/C=C\c2ccccc21 | > 200 | 132 | – |
| C=CC1C(OC2OC(CO)C(O)C(O)C2O)OC=C(C(=O)OC)C1CC=O (stereo unspecified) | > 646 | > 646 | – |
| Cn1cc(NC(=O)Nc2cc(C(=O)Nc3cc(C(=O)Nc4ccc(S(=O)(=O)O)c5cc(S(=O)(=O)O)ccc45)n(C)c3)n(C)c2)cc1C(=O)Nc1cc(C(=O)Nc2ccc(S(=O)(=O)O)c3cc(S(=O)(=O)O)ccc23)n(C)c1 | 12.3 | 61.7 | – |
| CC(=O)O[C@@H]1CC[C@]2(C)C3C[C@H](OC(C)=O)[C@]4(C)C(C(C)CCc5nc6ccccc6o5)CCC4C3[C@H](OC(C)=O)C[C@@H]2C1 (stereo partly specified) | > 50.1 | 8.51 | – |
| N#Cc1ccc(C2Oc3ccc(Cl)cc3C=C2[N+](=O)[O-])cc1 (stereo unspecified) | > 200 | 0.977 | – |
| Cc1ccc(C(=O)/C=C/c2ccc(Cl)c(Cl)c2)cc1 | > 17.8 | > 17.8 | – |
| CC(NC(=O)C(CCCCN)NC(=O)C(N)CC(=O)O)C(=O)NC(CO)C(=O)NC(Cc1ccc(O)cc1)C(=O)NC(CO)C(=O)NC(C(=O)NC(CC(N)=O)C(=O)NC(Cc1cnc[nH]1)C(=O)O)C(C)O (stereo unspecified) (H-DKASYSTNH-OH; configuration not given here) | > 49 | > 49 | – |
| CC1(C)C(=O)C(C)(C)C12SSC1(S2)C(C)(C)C(=O)C1(C)C | > 200 | 81.3 | – |
| CS(=O)(=O)CS(=O)CS(=O)CS(=O)CC(NC(=O)CCC(N)C(=O)O)C(=O)O (stereo unspecified) | > 513 | > 513 | – |
| COC1OC(Cn2c(C)nc(Br)c2Br)C(O)C(O)C1O (stereo unspecified) | 33.9 | > 200 | – |
| Nc1nc(Cl)cc(NCC2(CO)CC(OCc3ccccc3)C2)n1 (stereo unspecified) | > 200 | 6.03 | – |
